Drawing on patent US9428460B2, “N-[4-(quinolin-4-yloxy)cyclohexyl(methyl)](hetero)arylcarboxamides as androgen receptor antagonists, production and use thereof as medicinal products” (BAYER PHARMA AKTIENGESELLSCHAFT, priority 2012, dated 2016), this text covers IC50 for five compounds.

Common to all, as to type: cell-based
For assay [1], the target named is human androgen receptor (full length, wild-type form) (Homo sapiens (Human), UniProt P10275). Description: Transactivation assay for the wild-type androgen receptor (PC-3 cells, MMTV-luciferase reporter). The conditions noted are these: in the presence of R1881, 16 hours. From the text: For determining the androgen receptor-dependent transcription, a cellular assay system was used, consisting of PC-3 cells (Kaighn et al., Invest. Urol. 17: 16-23, 1979), which express the human androgen receptor stably and recombinantly (full length, wild-type form, see Swiss-Prot Acc. No. P10275, Entry Version 159, Sequence Version 2). In addition, these PC3 cells contain a stably integrated reporter gene plasmid, which is based on the commercially available plasmid pGL4.14 (#E6691, Promega Corporation, Madison, Wis., USA) and contains the luciferase gene from the American firefly (Photinus pyralis) under the control of the MMTV promoter (Cato et al., EMBO J. 6: 363-368, 1987). These cells were propagated in routine cell culture at 37° C. and 5% CO2 in a medium containing 90% RPMI 1640 (Invitrogen GmbH, Darmstadt, Germany), 100 U penicillin, 100 μg/ml streptomycin (Invitrogen), 4 mM L-glutamine (Invitrogen), 10% fetal calf serum (FCS Serum Gold, PAA Laboratories GmbH, Cölbe, Germany), 600 μg/ml Geneticin (G418-sulphate, Invitrogen) and 10 μg/ml puromycin (Sigma Aldrich GmbH, Germany).
human androgen receptor (full length, wild-type form), sequence (P10275 whole entry): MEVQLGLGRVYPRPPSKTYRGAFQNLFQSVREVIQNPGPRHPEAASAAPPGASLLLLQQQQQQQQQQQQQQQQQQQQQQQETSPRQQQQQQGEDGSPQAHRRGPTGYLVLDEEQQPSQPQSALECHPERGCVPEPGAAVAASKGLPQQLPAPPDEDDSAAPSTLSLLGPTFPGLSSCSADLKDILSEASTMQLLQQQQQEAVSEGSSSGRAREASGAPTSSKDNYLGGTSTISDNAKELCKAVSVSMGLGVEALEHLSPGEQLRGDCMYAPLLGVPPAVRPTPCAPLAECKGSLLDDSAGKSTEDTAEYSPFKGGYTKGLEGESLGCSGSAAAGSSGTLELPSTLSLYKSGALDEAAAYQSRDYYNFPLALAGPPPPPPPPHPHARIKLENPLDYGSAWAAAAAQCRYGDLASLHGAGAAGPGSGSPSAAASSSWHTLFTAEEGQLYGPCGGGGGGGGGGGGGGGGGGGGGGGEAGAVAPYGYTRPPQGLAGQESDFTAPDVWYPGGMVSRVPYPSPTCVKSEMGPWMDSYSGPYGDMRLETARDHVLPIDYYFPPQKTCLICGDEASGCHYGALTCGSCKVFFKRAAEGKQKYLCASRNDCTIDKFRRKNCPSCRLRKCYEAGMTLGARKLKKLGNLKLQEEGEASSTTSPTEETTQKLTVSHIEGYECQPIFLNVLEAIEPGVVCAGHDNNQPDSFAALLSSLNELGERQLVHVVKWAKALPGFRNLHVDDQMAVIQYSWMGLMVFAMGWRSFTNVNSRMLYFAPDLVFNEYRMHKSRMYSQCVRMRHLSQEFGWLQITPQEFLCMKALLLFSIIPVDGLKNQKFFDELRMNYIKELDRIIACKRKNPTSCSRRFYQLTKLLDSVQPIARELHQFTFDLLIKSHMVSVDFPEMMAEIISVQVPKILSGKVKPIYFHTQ
For carrying out the transactivation assays, approx. 1000 cells per well were plated out in a 384-well cell culture plate in a medium that contained activated charcoal-treated calf serum (FCS Serum Gold, PAA Laboratories) at a concentration of 5% (v/v). The test substances were added in a concentration series from 5.12×10^−12 to 1×10^−5 M in the presence of […] R1881 (methyltrienolone). The test plates were incubated overnight at 37° C. and 5% CO2. After 16 hours, 15 μl of Steady Glo Lysis and Detection reagent (E2550, Promega Corporation, Madison, Wis., USA) was added per well and the luminescence was read in a Topcount Luminometer (PerkinElmer, Waltham, Mass., USA) for 4 seconds per well. The luminescence values obtained were normalized, wherein 100% corresponded to the effect of the unstimulated control (without R1881), and 0% corresponded to the effect of the stimulated control (R1881 plus DMSO instead of test substance). The IC50 value was determined by regression analysis based on a four-parameter equation (minimum, maximum, IC50, Hill coefficient; Y=Max+(Min−Max)/(1+(X/IC50)^Hill)).

Assay [2] addresses androgen receptor mutant E709Y (Homo sapiens (Human), UniProt P10275, E710Y). Put plainly: Transactivation assay for the androgen receptor mutant E709Y (transfected PC-3 cells). The conditions noted are these: in the presence of 1×10^−10 M R1881, 24 hours. The protocol:
PC-3 cells (Kaighn et al., Invest. Urol. 17: 16-23, 1979) were plated out at a density of 10000 cells per well of a 96-well cell culture plate in RMPI 1640 medium (F1235, Biochrom AG Berlin, Germany) that contained activated charcoal-treated calf serum (FCS Serum Gold, PAA Laboratories) at a concentration of 5% (v/v). On the next day the cells were transiently transfected with the pSG5-vector (#216201 Stratagene), which contained the sequence of the androgen receptor mutant E709Y (Georget et al., Mol. Endocrinol. 20(4): 724-734, 2006), and with the MMTV-luciferase plasmid (see above, transactivation assay for the androgen receptor mutant W741C). The cells were treated with the test substances in concentrations from 1×10^−8 to 1×10^−10 M in the presence of 1×10^−10 M R1881 and were incubated overnight at 37° C. and 5% CO2. After 24 hours, 100 μl of Steady Glo Lysis and Detection reagent (E2550, Promega) was added per well and the luminescence was read in a Victor3 Luminometer (PerkinElmer) for 1 second per well. The luminescence values obtained were normalized, wherein 100% corresponded to the effect of the unstimulated control (without R1881), and 0% corresponded to the effect of the stimulated control (R1881 plus DMSO instead of test substance). The IC50 value was determined by regression analysis based on a four-parameter equation (minimum, maximum, IC50, Hill coefficient; Y=Max+(Min−Max)/(1+(X/IC50)^Hill)).

For assay [3], the target named is androgen receptor mutant W741C (Homo sapiens (Human), UniProt P10275, W742C). Description: Transactivation assay for the androgen receptor mutant W741C (transfected PC-3 cells). The conditions noted are these: in the presence of 1×10^−10 M R1881, 24 hours. How it is done:
PC-3 cells (Kaighn et al., Invest. Urol. 17: 16-23, 1979) were plated out at a density of 10000 cells per well of a 96-well cell culture plate in RMPI 1640 medium (F1235, Biochrom AG, Berlin, Germany), which contained activated charcoal-treated calf serum (FCS Serum Gold, PAA Laboratories) at a concentration of 5% (v/v). On the next day the cells were transiently transfected with the pSG5-vector (#216201 Stratagene), which contained the sequence of the androgen receptor mutant W741C (Haapala et al., Lab Invest. 81(12): 1647-51, 2001), and with a reporter plasmid based on pGL4.14 (#E6691, Promega) with the luciferase-gene (from Photinus pyralis) under the control of the MMTV promoter (Cato et al., EMBO J. 6: 363-8, 1987). The cells were treated with the test substances in concentrations from 1×10^−8 to 1×10^−10 M in the presence of 1×10^−10 M R1881 and were incubated overnight at 37° C. and 5% CO2. After 24 hours, 100 μl of Steady Glo Lysis and Detection reagent (E2550, Promega) was added per well and the luminescence was read in a Victor3 Luminometer (PerkinElmer) for 1 second per well. The luminescence values obtained were normalized, wherein 100% corresponded to the effect of the unstimulated control (without R1881), and 0% corresponded to the effect of the stimulated control (R1881 plus DMSO instead of test substance). The IC50 value was determined by regression analysis based on a four-parameter equation (minimum, maximum, IC50, Hill coefficient; Y=Max+(Min−Max)/(1+(X/IC50)^Hill)).

A further assay deals with LAPC-4 cells. Description: Proliferation assay with LAPC-4 cells. The conditions noted are these: Homo sapiens, LAPC4, 168 h; in the presence of 1×10^−9 M R1881, seven days, AlamarBlue; read-out: IC50 LAPC-4 cell proliferation. How it is done:
LAPC-4 cells (Klein et al., Nat Med. 3(4): 402-8, 1997) were plated out at a density of 4000 cells per well of a 96-well cell culture plate in RMPI 1640 medium (F1275, Biochrom AG) that contained activated charcoal-treated calf serum (FCS Serum Gold, PAA Laboratories) at a concentration of 10% (v/v). On the next day the cells were treated with the test substances in concentrations from 1×10^−8 to 1×10^−10 M in the presence of 1×10^−9 M R1881. Cell proliferation was determined seven days later after incubation for 2 hours with AlamarBlue (DAL1100, Invitrogen) (Nakayama et al., J Immunol Methods, 204(2): 205-8, 1997). The fluorescence values obtained were normalized, wherein 100% corresponded to the effect of the unstimulated control (without R1881), and 0% corresponded to the effect of the stimulated control (R1881 plus DMSO instead of test substance). The IC50 value was determined by regression analysis based on a four-parameter equation (minimum, maximum, IC50, Hill coefficient; Y=Max+(Min−Max)/(1+(X/IC50)^Hill)).
For orientation: Alamar Blue is a resazurin reagent that responds to reducing activity.

Another assay relates to LNCaP cells. Put plainly: Proliferation assay with LNCaP cells. The conditions noted are these: Homo sapiens, 168 h, in the presence of 1×10^−10 M R1881, seven days, AlamarBlue, read-out: IC50 LNCaP cell proliferation. How it is done:
LNCaP cells (Horoszewicz et al., in “Models for Prostate Cancer” (ed. G. P. Murphy), Alan R. Liss, New York 1981, p. 115-132; Horoszewicz et al., Cancer Res. 43: 1809-1818, 1983) were plated out at a density of 2000 cells per well of a 96-well cell culture plate in RMPI 1640 medium (F1275, Biochrom AG), which contained activated charcoal-treated calf serum (FCS Serum Gold, PAA Laboratories) at a concentration of 5% (v/v). Three days later the cells were treated with the test substances in concentrations from 1×10^−8 to 1×10^−10 M in the presence of 1×10^−10 M R1881. Cell proliferation was determined seven days later after incubation for 2 hours with AlamarBlue (DAL1100, Invitrogen) (Nakayama et al., J Immunol Methods, 204(2): 205-8, 1997). The fluorescence values obtained were normalized, wherein 100% corresponded to the effect of the unstimulated control (without R1881), and 0% corresponded to the effect of the stimulated control (R1881 plus DMSO instead of test substance). The IC50 value was determined by regression analysis based on a four-parameter equation (minimum, maximum, IC50, Hill coefficient; Y=Max+(Min−Max)/(1+(X/IC50)^Hill)).

androgen receptor mutant W741C, sequence (P10275 whole entry W742C): as the sequence (P10275 whole entry) above, with W742C counted along it
androgen receptor mutant E709Y, sequence (P10275 whole entry E710Y): as the sequence (P10275 whole entry) above, with E710Y counted along it

Turning to `O=C(NC[C@H]1CC[C@H](Oc2ccnc3ccccc23)CC1)c1cccc(F)c1` [Example 10, N-{[trans-4-(4-quinolyloxy)cyclohexyl]methyl}-3-fluorobenzamide], the IC50 worked out at 194 nM in assay [1], 175 nM in assay [2], 220 nM in assay [3] and 130 nM with LAPC-4 cells.

Regarding `N#Cc1cccc2c(O[C@H]3CC[C@H](NC(=O)c4ccc(F)c(F)c4)CC3)ccnc12` [Example 24, N-{trans-4-[(8-cyanoquinolin-4-yl)oxy]cyclohexyl}-3,4-difluorobenzamide], the IC50 in assay [1] came to 92 nM; in assay [2] it was 14 nM; in assay [3], 72 nM.

On to `Cc1cc(C(=O)NC[C@H]2CC[C@H](Oc3ccnc4ccccc34)CC2)no1` [Example 11, N-{[trans-4-(4-quinolyloxy)cyclohexyl]methyl}-5-methylisoxazole-3-carboxamide], for which the IC50 with LNCaP cells stood at 260 nM; in assay [1], 210 nM; in the assay with LAPC-4 cells it was 118 nM.

`O=C(NC[C@H]1CC[C@H](Oc2ccnc3ccccc23)CC1)c1ccc(F)c(F)c1` [Example 9, N-{[trans-4-(4-quinolyloxy)cyclohexyl]methyl}-3,4-difluorobenzamide]: the IC50 in assay [1] came out at 105 nM; in assay [2], 56 nM; in assay [3] it was 72 nM; in the assay on LAPC-4 cells, 45 nM.

On to `O=C(N[C@H]1CC[C@H](Oc2ccnc3ccccc23)CC1)c1cccc(F)c1` [Example 19, N-{trans-4-(4-quinolyloxy)cyclohexyl}-3-fluorobenzamide], for which the IC50 in the assay with LNCaP cells came to 110 nM; in assay [1] it was 32 nM; in the assay on LAPC-4 cells, 48 nM.
